Reference: patent publication US8497245B2, “Trypsin-like serine protease inhibitors, their preparation and use as selective inhibitors of the clotting factors IIa and Xa” (The Medicines Company (Leipzig) GmbH, priority 2010, dated 2013)

Molecular target: T1, Human plasma kallikrein (h PK) (Homo sapiens, UniProt P03952)
T1 construct: purchased Enzyme Research Laboratories
Assay: Inhibition of human plasma kallikrein (reference enzyme)
Type: biochemical
Conditions: S2302 substrate
Experimental: (§1) The inhibitory effect against the individual purified enzymes was determined in analogy to a previously disclosed method (Stürzebecher et al., J. Med. Chem., 40, 3091-3099 (1997)).
(§2) The release of p-nitroaniline (p-NA, the chromogenic product of the proteolytic activity), was determined by change in absorbance at 405 nm. The equilibrium rates were used to calculate the inhibitor/enzyme dissociation constant (Ki values) by parameter fitting in accordance with the rate equation for competitive inhibition using GraFit (version 4 from Erithacus). The results are reported as Ki values (nanomolar) in table 7 and are the average of at least three determinations.
(§3) Dissociation constants were calculated as described herein.

T1 sequence (P03952 391-638 limits assumed): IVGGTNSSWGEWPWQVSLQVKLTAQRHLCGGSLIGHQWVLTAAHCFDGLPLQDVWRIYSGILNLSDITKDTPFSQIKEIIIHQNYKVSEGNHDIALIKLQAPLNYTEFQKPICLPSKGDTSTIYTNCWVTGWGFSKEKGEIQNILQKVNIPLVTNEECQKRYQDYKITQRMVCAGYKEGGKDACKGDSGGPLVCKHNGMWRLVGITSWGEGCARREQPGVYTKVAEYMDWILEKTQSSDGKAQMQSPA
T1 sequence (P03952 20-390 partner limits assumed): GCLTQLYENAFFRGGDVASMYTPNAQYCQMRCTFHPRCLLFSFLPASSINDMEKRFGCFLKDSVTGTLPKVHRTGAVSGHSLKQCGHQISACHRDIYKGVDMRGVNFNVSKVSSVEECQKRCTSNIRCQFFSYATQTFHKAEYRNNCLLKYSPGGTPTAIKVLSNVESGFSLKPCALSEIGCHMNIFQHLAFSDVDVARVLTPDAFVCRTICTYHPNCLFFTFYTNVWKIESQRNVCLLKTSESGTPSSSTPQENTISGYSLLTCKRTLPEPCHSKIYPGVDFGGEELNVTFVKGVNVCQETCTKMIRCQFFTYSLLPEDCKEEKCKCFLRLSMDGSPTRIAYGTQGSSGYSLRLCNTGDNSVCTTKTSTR

Ki	Compound
3.06 µM	NCc1ccc(Cl)cc1CNC(=O)[C@@H]1CCCN1C(=O)[C@@H](CCC(=O)N1CCC(N)CC1)NS(=O)(=O)Cc1ccccc1 [Compound 2.32]
6.06 µM	NCc1ccc(Cl)cc1CNC(=O)[C@@H]1CCCN1C(=O)[C@@H](CCC(=O)N1CCOCC1)NC(=O)OCc1ccccc1 [Compound 2.33]

Molecular target: T2, Human tissue-type plasminogen activator (h t-PA) (Homo sapiens, UniProt P00750)
T2 construct: purchased Boehringer Ingelheim Actilyse
T2 sequence (P00750 36-562): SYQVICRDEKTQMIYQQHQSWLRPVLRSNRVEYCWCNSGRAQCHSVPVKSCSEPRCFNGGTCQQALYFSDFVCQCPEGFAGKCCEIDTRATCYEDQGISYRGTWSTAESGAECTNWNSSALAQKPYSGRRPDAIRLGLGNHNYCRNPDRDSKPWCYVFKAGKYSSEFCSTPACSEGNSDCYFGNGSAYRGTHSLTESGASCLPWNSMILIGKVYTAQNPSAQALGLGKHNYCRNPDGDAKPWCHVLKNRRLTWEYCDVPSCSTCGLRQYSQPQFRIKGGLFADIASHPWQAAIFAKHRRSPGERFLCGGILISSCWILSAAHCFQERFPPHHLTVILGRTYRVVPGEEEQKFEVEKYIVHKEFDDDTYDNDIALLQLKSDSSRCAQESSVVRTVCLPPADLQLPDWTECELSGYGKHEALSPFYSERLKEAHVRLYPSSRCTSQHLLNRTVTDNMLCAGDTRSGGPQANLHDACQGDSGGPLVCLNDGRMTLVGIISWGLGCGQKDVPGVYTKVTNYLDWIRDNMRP
Assay: Inhibition of human tissue-type plasminogen activator (reference enzyme)
Type: biochemical
Conditions: Pefachrome tPA substrate; read-out: Ki h t-PA
Experimental: The equilibrium rates were used to calculate the inhibitor/enzyme dissociation constant (Ki values) by parameter fitting in accordance with the rate equation for competitive inhibition using GraFit (version 4 from Erithacus).
as §3

Ki	Compound
> 50 µM	NCc1ccc(Cl)cc1CNC(=O)[C@@H]1CCCN1C(=O)[C@@H](CCC(=O)N1CCC(N)CC1)NS(=O)(=O)Cc1ccccc1 [Compound 2.32]
> 20 µM	NCc1ccc(Cl)cc1CNC(=O)[C@@H]1CCCN1C(=O)[C@@H](CCC(=O)N1CCOCC1)NC(=O)OCc1ccccc1 [Compound 2.33]

Molecular target: T3, Human plasmin (h plasmin) (Homo sapiens, UniProt P00747)
T3 construct: purchased Calbiochem
T3 sequence (P00747 581-810 limits assumed): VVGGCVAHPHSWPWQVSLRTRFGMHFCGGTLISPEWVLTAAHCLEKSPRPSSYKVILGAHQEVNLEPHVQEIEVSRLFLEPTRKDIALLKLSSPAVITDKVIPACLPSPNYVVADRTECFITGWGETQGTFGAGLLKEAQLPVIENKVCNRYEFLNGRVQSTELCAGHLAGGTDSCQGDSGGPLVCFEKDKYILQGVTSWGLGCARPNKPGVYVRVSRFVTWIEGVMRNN
T3 sequence (P00747 97-580 partner limits assumed): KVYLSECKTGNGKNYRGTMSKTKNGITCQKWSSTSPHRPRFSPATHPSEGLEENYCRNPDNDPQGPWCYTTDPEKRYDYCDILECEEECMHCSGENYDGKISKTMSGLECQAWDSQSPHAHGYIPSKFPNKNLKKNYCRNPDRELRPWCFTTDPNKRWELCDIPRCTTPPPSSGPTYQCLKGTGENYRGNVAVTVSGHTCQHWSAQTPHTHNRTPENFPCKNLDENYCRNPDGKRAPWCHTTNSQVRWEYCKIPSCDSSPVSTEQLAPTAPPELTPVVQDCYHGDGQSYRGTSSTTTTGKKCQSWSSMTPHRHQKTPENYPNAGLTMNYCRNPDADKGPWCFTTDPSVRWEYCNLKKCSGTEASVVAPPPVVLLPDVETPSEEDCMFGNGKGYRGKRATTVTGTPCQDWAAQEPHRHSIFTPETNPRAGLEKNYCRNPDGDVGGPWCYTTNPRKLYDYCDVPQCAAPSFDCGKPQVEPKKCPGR
Assay: Inhibition of human plasmin (reference enzyme)
Type: biochemical
Conditions: Chromozym PL substrate
Experimental: as §1, §2, §3

Ki	Compound
> 20 µM	NCc1ccc(Cl)cc1CNC(=O)[C@@H]1CCCN1C(=O)[C@@H](CCC(=O)N1CCC(N)CC1)NS(=O)(=O)Cc1ccccc1 [Compound 2.32]
> 20 µM	NCc1ccc(Cl)cc1CNC(=O)[C@@H]1CCCN1C(=O)[C@@H](CCC(=O)N1CCOCC1)NC(=O)OCc1ccccc1 [Compound 2.33]

Molecular target: T4, human factor IIa (human alpha-thrombin) (Homo sapiens, UniProt P00734)
T4 construct: human alpha-thrombin from Enzyme Research Laboratories; purchased Enzyme Research Laboratories
Assay: Inhibition constants for human factor IIa, chromogenic substrate assay
Type: biochemical
Conditions: 25° C., Pefachrome tPA substrate, average of at least three determinations; read-out: Ki h FIIa
Experimental: as §1
(§4) 200 μL of TBS (0.05 M trishydroxymethylaminomethane; 0.154 M NaCl, 2% ethanol, pH 8.0)
as §2

Ki	Compound
0.00015 µM	NCc1ccc(Cl)cc1CNC(=O)[C@@H]1CCCN1C(=O)[C@@H](CCC(=O)N1CCC(N)CC1)NS(=O)(=O)Cc1ccccc1 [Compound 2.32]
0.0014 µM	NCc1ccc(Cl)cc1CNC(=O)[C@@H]1CCCN1C(=O)[C@@H](CCC(=O)N1CCOCC1)NC(=O)OCc1ccccc1 [Compound 2.33]

Molecular target: T5, Human Activated Protein C (h aPC) (Homo sapiens, UniProt P04070)
T5 construct: purchased Enzyme Research Laboratories
T5 sequence (P04070 212-450 limits assumed): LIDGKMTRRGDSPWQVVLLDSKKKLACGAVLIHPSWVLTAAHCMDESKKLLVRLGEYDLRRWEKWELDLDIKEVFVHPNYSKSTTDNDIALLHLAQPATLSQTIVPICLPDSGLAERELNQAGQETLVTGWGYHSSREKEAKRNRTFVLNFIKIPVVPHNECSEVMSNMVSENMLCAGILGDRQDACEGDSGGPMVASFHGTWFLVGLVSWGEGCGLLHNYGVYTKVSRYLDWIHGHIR
T5 sequence (P04070 43-197 partner limits assumed): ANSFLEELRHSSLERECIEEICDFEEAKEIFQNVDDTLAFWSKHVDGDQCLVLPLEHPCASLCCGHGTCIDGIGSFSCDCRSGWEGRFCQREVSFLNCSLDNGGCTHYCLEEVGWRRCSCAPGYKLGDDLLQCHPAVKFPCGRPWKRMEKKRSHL
Assay: Inhibition of human activated protein C (reference enzyme)
Type: biochemical
Conditions: Pefachrome PCa substrate
Experimental: as §1, §2, §3

Ki	Compound
> 100 µM	NCc1ccc(Cl)cc1CNC(=O)[C@@H]1CCCN1C(=O)[C@@H](CCC(=O)N1CCC(N)CC1)NS(=O)(=O)Cc1ccccc1 [Compound 2.32]
> 30 µM	NCc1ccc(Cl)cc1CNC(=O)[C@@H]1CCCN1C(=O)[C@@H](CCC(=O)N1CCOCC1)NC(=O)OCc1ccccc1 [Compound 2.33]

Molecular target: T6, human Factor Xa (Homo sapiens, UniProt P00742)
T6 construct: human Factor Xa from Enzyme Research Laboratories; purchased Enzyme Research Laboratories
T6 sequence (P00742 235-488 limits assumed): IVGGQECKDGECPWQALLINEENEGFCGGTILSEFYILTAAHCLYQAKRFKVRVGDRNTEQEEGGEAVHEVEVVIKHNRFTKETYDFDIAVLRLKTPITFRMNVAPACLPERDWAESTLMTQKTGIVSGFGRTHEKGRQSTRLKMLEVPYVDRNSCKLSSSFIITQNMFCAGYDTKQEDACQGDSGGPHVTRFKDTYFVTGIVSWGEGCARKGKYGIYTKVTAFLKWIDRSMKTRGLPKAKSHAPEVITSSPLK
T6 sequence (P00742 41-179 partner limits assumed): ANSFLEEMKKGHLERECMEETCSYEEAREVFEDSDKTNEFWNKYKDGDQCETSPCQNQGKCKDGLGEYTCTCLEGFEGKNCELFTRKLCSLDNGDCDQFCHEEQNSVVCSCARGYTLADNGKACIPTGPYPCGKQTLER
Assay: Inhibition constants for human factor Xa, chromogenic substrate assay
Type: biochemical
Conditions: 25° C., Pefachrome FXa substrate, average of at least three determinations; read-out: Ki h FXa
Experimental: as §1, §4, §2

Ki	Compound
0.033 µM	NCc1ccc(Cl)cc1CNC(=O)[C@@H]1CCCN1C(=O)[C@@H](CCC(=O)N1CCC(N)CC1)NS(=O)(=O)Cc1ccccc1 [Compound 2.32]
0.0088 µM	NCc1ccc(Cl)cc1CNC(=O)[C@@H]1CCCN1C(=O)[C@@H](CCC(=O)N1CCOCC1)NC(=O)OCc1ccccc1 [Compound 2.33]

Molecular target: T7, Subcomponent "r" of Human Complement Component 1 (h C1r) (Homo sapiens, UniProt P00736)
T7 construct: purchased Calbiochem
T7 sequence (P00736 464-705 limits assumed): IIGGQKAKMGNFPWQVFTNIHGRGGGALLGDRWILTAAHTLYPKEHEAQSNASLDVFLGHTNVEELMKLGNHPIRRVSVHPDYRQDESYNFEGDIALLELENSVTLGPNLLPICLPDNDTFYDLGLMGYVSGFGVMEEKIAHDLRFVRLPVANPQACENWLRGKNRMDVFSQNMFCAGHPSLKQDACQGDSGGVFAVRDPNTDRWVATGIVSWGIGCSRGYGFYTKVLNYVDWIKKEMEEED
T7 sequence (P00736 18-463 partner limits assumed): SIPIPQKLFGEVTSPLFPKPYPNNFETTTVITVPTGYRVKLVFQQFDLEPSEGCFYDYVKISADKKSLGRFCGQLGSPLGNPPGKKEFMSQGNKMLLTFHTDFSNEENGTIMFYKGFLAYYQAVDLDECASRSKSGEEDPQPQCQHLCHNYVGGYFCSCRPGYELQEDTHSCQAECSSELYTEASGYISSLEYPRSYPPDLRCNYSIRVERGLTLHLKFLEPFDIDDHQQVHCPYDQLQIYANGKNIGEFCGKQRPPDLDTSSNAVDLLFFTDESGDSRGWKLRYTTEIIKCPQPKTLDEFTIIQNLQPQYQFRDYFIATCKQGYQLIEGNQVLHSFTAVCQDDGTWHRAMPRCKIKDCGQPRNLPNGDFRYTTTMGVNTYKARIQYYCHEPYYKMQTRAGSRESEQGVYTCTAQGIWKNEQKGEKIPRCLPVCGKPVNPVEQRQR
Assay: Inhibition of human C1r (reference enzyme)
Type: biochemical
Conditions: S-2314 substrate; read-out: Ki h Clr
Experimental: as §1, §2, §3

Ki	Compound
> 100 µM	NCc1ccc(Cl)cc1CNC(=O)[C@@H]1CCCN1C(=O)[C@@H](CCC(=O)N1CCC(N)CC1)NS(=O)(=O)Cc1ccccc1 [Compound 2.32]
> 100 µM	NCc1ccc(Cl)cc1CNC(=O)[C@@H]1CCCN1C(=O)[C@@H](CCC(=O)N1CCOCC1)NC(=O)OCc1ccccc1 [Compound 2.33]

Molecular target: T8, Subcomponent "s" of Human Complement Component 1 (h C1s) (Homo sapiens, UniProt P09871)
T8 construct: purchased Calbiochem
T8 sequence (P09871 438-688 limits assumed): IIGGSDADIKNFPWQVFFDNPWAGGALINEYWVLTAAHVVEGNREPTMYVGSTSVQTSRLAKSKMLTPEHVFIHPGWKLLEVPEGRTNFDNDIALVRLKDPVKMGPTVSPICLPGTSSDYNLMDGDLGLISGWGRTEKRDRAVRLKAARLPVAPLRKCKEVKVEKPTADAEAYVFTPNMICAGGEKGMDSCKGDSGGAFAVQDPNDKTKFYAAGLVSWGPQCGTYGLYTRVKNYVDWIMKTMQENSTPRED
T8 sequence (P09871 16-437 partner limits assumed): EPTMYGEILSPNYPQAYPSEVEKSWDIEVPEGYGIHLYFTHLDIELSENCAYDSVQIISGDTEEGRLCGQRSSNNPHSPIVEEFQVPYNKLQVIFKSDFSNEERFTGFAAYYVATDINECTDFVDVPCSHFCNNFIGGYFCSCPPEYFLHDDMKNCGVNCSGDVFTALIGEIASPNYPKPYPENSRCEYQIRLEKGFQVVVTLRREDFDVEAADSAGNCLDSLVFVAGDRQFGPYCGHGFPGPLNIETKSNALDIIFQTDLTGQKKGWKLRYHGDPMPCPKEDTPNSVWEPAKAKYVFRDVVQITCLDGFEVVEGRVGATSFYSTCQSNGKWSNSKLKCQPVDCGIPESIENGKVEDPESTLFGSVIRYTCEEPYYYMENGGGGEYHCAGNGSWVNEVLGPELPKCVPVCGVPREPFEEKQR
Assay: Inhibition of human C1s (reference enzyme)
Type: biochemical
Conditions: S-2314 substrate; read-out: Ki h Cls
Experimental: as §1, §2, §3

Ki	Compound
> 100 µM	NCc1ccc(Cl)cc1CNC(=O)[C@@H]1CCCN1C(=O)[C@@H](CCC(=O)N1CCC(N)CC1)NS(=O)(=O)Cc1ccccc1 [Compound 2.32]
> 50 µM	NCc1ccc(Cl)cc1CNC(=O)[C@@H]1CCCN1C(=O)[C@@H](CCC(=O)N1CCOCC1)NC(=O)OCc1ccccc1 [Compound 2.33]

Molecular target: T9, Human urokinase type plasminogen activator (h u-PA) (Homo sapiens, UniProt P00749)
T9 construct: purchased MEDAC GmbH Urokinase HS medac
Assay: Inhibition of human urokinase type plasminogen activator (reference enzyme)
Type: biochemical
Conditions: H-Glu-Gly-Arg-pNA substrate
Experimental: as §1, §2, §3

Ki	Compound
> 100 µM	NCc1ccc(Cl)cc1CNC(=O)[C@@H]1CCCN1C(=O)[C@@H](CCC(=O)N1CCC(N)CC1)NS(=O)(=O)Cc1ccccc1 [Compound 2.32]
> 50 µM	NCc1ccc(Cl)cc1CNC(=O)[C@@H]1CCCN1C(=O)[C@@H](CCC(=O)N1CCOCC1)NC(=O)OCc1ccccc1 [Compound 2.33]

Molecular target: T10, Human urinary kallikrein (h uKK) (Homo sapiens, UniProt P06870)
T10 construct: purchased Lee Biosolutions
T10 sequence (P06870 25-262): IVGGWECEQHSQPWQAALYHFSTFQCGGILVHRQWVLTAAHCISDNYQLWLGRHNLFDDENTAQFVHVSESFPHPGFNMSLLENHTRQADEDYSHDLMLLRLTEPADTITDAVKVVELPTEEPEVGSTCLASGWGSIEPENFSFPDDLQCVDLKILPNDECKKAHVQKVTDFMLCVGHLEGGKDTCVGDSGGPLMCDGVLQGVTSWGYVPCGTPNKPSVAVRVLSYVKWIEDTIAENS
Assay: Inhibition of human urinary kallikrein (reference enzyme)
Type: biochemical
Conditions: S-2266 substrate
Experimental: as §1, §2, §3

Ki	Compound
> 10 µM	NCc1ccc(Cl)cc1CNC(=O)[C@@H]1CCCN1C(=O)[C@@H](CCC(=O)N1CCC(N)CC1)NS(=O)(=O)Cc1ccccc1 [Compound 2.32]
> 40 µM	NCc1ccc(Cl)cc1CNC(=O)[C@@H]1CCCN1C(=O)[C@@H](CCC(=O)N1CCOCC1)NC(=O)OCc1ccccc1 [Compound 2.33]
